The results in this text go back to patent US11447471B2, “α,β-unsaturated amide compound” (KYOWA KIRIN CO., LTD., priority 2017, dated 2022).

What all share (assay type): cell-based
Test [1] concerns NCI-H226 cells. Briefly: Cell growth inhibitory effect on human mesothelioma cell line (cell counting kit 8, 6 days). The conditions noted are these: NCI-H226, 144 h. The text has this: (§1) NCI-H226 cells, a human mesothelioma cell line (ATCC, CRL-5826), NCI-H322 cells, a human lung cancer cell line (the European Collection of Authenticated Cell Cultures, 95111734), OUTOKO cells, a human ovarian cancer cell line (JCRB cell bank, KRB1048) and […] were each subcultured by keeping the cell density under 80% in a RPMI1640 culture medium with 10% fetal bovine serum (FBS). NCI-H226 cells, NCI-H322 cells and SSP-25 cells were each suspended in the RPMI1640 culture medium mentioned above, and plated to a 96-well flat-bottom plate at 500 cells/well in each well, and incubated at 37° C. in an incubator with 5% CO2 for one day. After the incubation, the evaluation of cell growth inhibitory activity was started. OVTOKO cells were suspended in the RPMI1640 culture medium mentioned above, and plated to a 96-well flat-bottom plate at 250 cells/well in each well, and incubated it at 37° C. in an incubator with 5% CO2 for one day. After the incubation, the evaluation of the cell growth inhibitory activity was started. The next day, a test compound was serially diluted to 5 times of its final concentration in the RPM11640 culture medium mentioned above, and the diluted solution was added to each well. In this case, the final concentration of DMSO in each well was adjusted to 0.1%. After the test compound was added, cells were incubated at 37° C. in an incubator with 5% CO2 for 6 days. At the addition of the test compound and 6 days after the addition, the cell counting measurement was performed using a cell counting kit 8 (made by DOJINDO) according to a protocol equivalent to DOJINDO's recommendation. A reagent contained in the kit was added to each plate and color reaction was performed for 2 or 3 hours at 37° C. in an incubator with 5% CO2. After the reaction, an absorbance at wavelength of 450 nm was measured using a microplate reader. A growth inhibition rate was calculated according to the following formula, from which the concentration of a test compound at which cell growth was inhibited by 50% (GI50 value) was determined.

The test system of test [2] is HuH28 cells. Nature of the test: Cell growth inhibitory effect on human liver cancer cell line (cell counting kit 8, 6 days). As to conditions: 144 h; human liver cancer cell line HuH28, 6 days incubation.
Text: as §1

Test [3] has as its system OVTOKO cells. Nature of the test: Cell growth inhibitory effect on human ovarian cancer cell line (cell counting kit 8, 6 days). The conditions noted are these: 144 h, 6 days incubation.
Text: as §1

The test system of test [4] is NCI-H322 cells. Nature of the test: Cell growth inhibitory effect on human lung cancer cell line (cell counting kit 8, 6 days). The conditions noted are these: 144 h; human lung cancer cell line NCI-H322, 6 days incubation.
Text: as §1
Background: Formazan colour is commonly taken as a measure of viable cells.

The GI50 is the concentration that inhibits growth by half. Low readings indicate more potent growth inhibition, high ones less potent growth inhibition.

A value given as a limit tells only on which side of the number the result lay.

Regarding `C=CC(=O)NCc1ccc(Oc2ccc(C#N)cc2)c2nc(C)oc12` [Compound 278, N-[{4-(4-Cyanophenoxy]-2-methylbenzo[d]oxazol-7-yl}methyl)acrylamide], the GI50 in test [1] is 100 to 1000 nM; in test [2], less than 3000 nM; in test [3], no more than 3000 nM; in test [4], less than 1000 nM.

`C=CC(=O)N[C@@H]1CC[C@H](Oc2ccc(C(F)(F)F)c(F)c2)c2nc(Cl)ccc21` (relative stereo) [Compound 187, cis-N-[2-Chloro-8-{3-fluoro-4-(trifluoromethyl)phenoxy}-5,6,7,8-tetrahydroquinolin-5-yl]acrylamide]: the GI50 in test [1] is less than 100 nM; in test [2], less than 3000 nM; in test [3], no more than 3000 nM; in test [4] it was less than 1000 nM.

For the molecule `C=CC(=O)NCc1ccc(Oc2ccc(C(F)(F)F)nc2)c2oc(C)nc12` [Compound 283, N-{(2-Methyl-7-[{6-(trifluoromethyl)pyridin-3-yl}oxy]benzo[d]oxazol-4-yl)methyl}acrylamide], the GI50 in test [1] was less than 100 nM; in test [2], less than 3000 nM; in test [3], no more than 3000 nM; in test [4], less than 1000 nM.

Turning to `C=CC(=O)NC1CC[C@H](Oc2ccc(C(F)(F)F)cc2)c2nc(Cl)ccc21` (stereo in doubt) [Compound 76, cis-N-[2-Chloro-8-{4-(trifluoromethyl)phenoxy}-5,6,7,8-tetrahydroquinolin-5-yl]acrylamide], the concentration for 50% growth inhibition (GI50) was less than 100 nM in test [1], no more than 3000 nM in test [3] and less than 1000 nM in test [4].

For the molecule `C=CC(=O)NCc1ccc(Oc2ccc(C(F)(F)F)cn2)c2nc(C)sc12` [Compound 286, N-{(2-Methyl-4-[{5-(trifluoromethyl)pyridin-2-yl}oxy]benzo[d]thiazol-7-yl)methyl}acrylamide], the concentration for 50% growth inhibition (GI50) is less than 100 nM in test [1], less than 3000 nM in test [2], no more than 3000 nM in test [3] and less than 1000 nM in test [4].

`C=CC(=O)NCc1ccc(Oc2ccc(C(F)(F)F)cc2)c2nc(C(C)C)oc12` [Compound 245, N-([2-Isopropyl-4-{4-(trifluoromethyl)phenoxy}benzo[d]oxazol-7-yl]methyl)acrylamide]: the GI50 in test [1] was less than 100 nM; in test [2], less than 3000 nM; in test [4], less than 1000 nM.

Regarding `C=CC(=O)NC1COc2ccc(Oc3ccc(C(F)(F)F)cc3)cc21` (stereo not shown) [Compound 262, N-[5-{4-(Trifluoromethyl)phenoxy}-2,3-dihydrobenzofuran-3-yl]acrylamide], the values for the GI50 in test [1] and in test [4] were less than 100 nM and less than 1000 nM, respectively.

In the case of `C=CC(=O)NCc1ccc(Oc2ccc(C(F)(F)F)cn2)c2nc(CC)oc12` [Compound 252, N-{(2-Ethyl-4-[{5-(trifluoromethyl)pyridin-2-yl}oxy]benzo[d]oxazol-7-yl)methyl}acrylamide], the 50% growth inhibitory concentration (GI50) in test [1] was less than 100 nM; in test [2], less than 3000 nM; in test [4] it was less than 1000 nM.

`C=CC(=O)NC1CC[C@H](Oc2ccc(Cl)cc2)c2nc(Cl)ccc21` (stereo in doubt) [Compound 70, cis-N-{2-Chloro-8-(4-chlorophenoxy)-5,6,7,8-tetrahydroquinolin-5-yl}acrylamide]: the GI50 in test [1] is less than 100 nM; in test [3], no more than 3000 nM; in test [4], less than 1000 nM.

As for `C=CC(=O)NCc1ccc(Oc2ccc(C(F)(F)F)cc2)c2oc(C)nc12` [Compound 253, N-([2-Methyl-7-{4-(trifluoromethyl)phenoxy}benzo[d]oxazol-4-yl]methyl)acrylamide], the 50% growth inhibitory concentration (GI50) in test [1] was less than 100 nM; in test [2] it was less than 3000 nM; in test [4], less than 1000 nM.

Turning to `C=CC(=O)NCc1ccc(Oc2ccc(C(F)(F)F)cc2)c2nc(-c3ccccc3)oc12` [Compound 246, N-([2-Phenyl-4-{4-(trifluoromethyl)phenoxy}benzo[d]oxazol-7-yl]methyl) acrylamide], the figures for the GI50 in test [1], in test [2] and in test [4] were 100 to 1000 nM, less than 3000 nM and less than 1000 nM, respectively.

Turning to `C=CC(=O)NC1COc2cc(Oc3ccc(C(F)(F)F)cc3)ccc21` (stereo not shown) [Compound 265, N-{6-[4-(Trifluoromethyl)phenoxy]-2,3-dihydrobenzofuran-3-yl}acrylamide], the GI50 is 100 to 1000 nM in test [1] and less than 1000 nM in test [4].

Take `C=CC(=O)NCc1ccc(/C=C/c2ccc(C(F)(F)F)cc2)c2nc(C)oc12` [Compound 273, (E)-N-([2-Methyl-4-{4-(trifluoromethyl)styryl}benzo[d]oxazol-7-yl]methyl)acrylamide]: the results for the concentration for 50% growth inhibition (GI50) in test [1], in test [2] and in test [3] were 100 to 1000 nM, less than 3000 nM and no more than 3000 nM, respectively.

For `C=CC(=O)NC1CC[C@H](Oc2ccc(Cl)cc2)c2nc(OC)ccc21` (stereo in doubt) [Compound 71, cis-N-{8-(4-Chlorophenoxy)-2-methoxy-5,6,7,8-tetrahydroquinolin-5-yl}acrylamide], the GI50 in test [1] was less than 100 nM; in test [3] it was no more than 3000 nM; in test [4] it was less than 1000 nM.

Regarding `C=CC(=O)NC1COc2c(Oc3ccc(C(F)(F)F)cc3)cccc21` (stereo not shown) [Compound 264, N-[7-{4-(Trifluoromethyl)phenoxy}-2,3-dihydrobenzofuran-3-yl]acrylamide], the values for the concentration for 50% growth inhibition (GI50) in test [1] and in test [4] were less than 100 nM and less than 1000 nM, respectively.

For `C=CC(=O)NC1CC[C@@H](Oc2ccc(C(F)(F)F)cc2)c2nc(Cl)ccc21` (stereo in doubt) [Compound 82, trans-N-[2-Chloro-8-{4-(trifluoromethyl)phenoxy}-5,6,7,8-tetrahydroquinolin-5-yl]acrylamide], the results for the 50% growth inhibitory concentration (GI50) in test [1], in test [3] and in test [4] were less than 100 nM, no more than 3000 nM and less than 1000 nM, respectively.

`C=CC(=O)NC1COc2cc(C)c(Oc3ccc(C(F)(F)F)cc3)cc21` (stereo not shown) [Compound 266, N-{6-Methyl-5-[4-(trifluoromethyl)phenoxy]-2,3-dihydrobenzofuran-3-yl}acrylamide]: the results for the 50% growth inhibitory concentration (GI50) in test [1] and in test [4] were 100 to 1000 nM and less than 1000 nM, respectively.

Consider `C=CC(=O)NCc1ccc(Oc2ccc(C(F)(F)F)nc2)c2nc(CC)oc12` [Compound 251, N-{(2-Ethyl-4-[{6-(trifluoromethyl)pyridin-3-yl}oxy]benzo[d]oxazol-7-yl)methyl}acrylamide], for which the GI50 in test [1] was less than 100 nM; in test [2] it was less than 3000 nM; in test [4], less than 1000 nM.

`C=CC(=O)N[C@@H]1CC[C@H](Oc2ccc(C(F)(F)F)cc2)c2nc(C)ccc21` (relative stereo) [Compound 184, cis-N-[2-Methyl-8-{4-(trifluoromethyl)phenoxy}-5,6,7,8-tetrahydroquinolin-5-yl]acrylamide]: the GI50 is less than 100 nM in test [1], no more than 3000 nM in test [3] and less than 1000 nM in test [4].

Take `C=CC(=O)NC1CCOc2nc(Oc3ccc(C(F)(F)F)cc3)ccc21` (stereo not shown) [Compound 259, N-[7-{4-(Trifluoromethyl)phenoxy}-3,4-dihydro-2H-pyrano[2,3-b]pyridin-4-yl]acrylamide]: the concentration for 50% growth inhibition (GI50) in test [1] was 100 to 1000 nM; in test [4] it was less than 1000 nM.

`C=CC(=O)NCc1cc(Oc2ccc(C(F)(F)F)cc2)c2ncccc2c1` [Compound 214]: the GI50 in test [1] was less than 100 nM; in test [4], less than 1000 nM.

With `C=CC(=O)NCc1ccc(S(=O)(=O)c2ccc(C(F)(F)F)cc2)c2nc(C)oc12` [Compound 271, N-{(2-Methyl-4-[{4-(trifluoromethyl)phenyl}sulfonyl]benzo[d]oxazol-7-yl)methyl}acrylamide], the 50% growth inhibitory concentration (GI50) in test [2] was less than 3000 nM; in test [3], no more than 3000 nM.

Turning to `C=CC(=O)NC1COc2c(Br)cc(Oc3ccc(C(F)(F)F)cc3)cc21` (stereo not shown) [Compound 263, N-[7-Bromo-5-{4-(trifluoromethyl)phenoxy}-2,3-dihydrobenzofuran-3-yl]acrylamide], the 50% growth inhibitory concentration (GI50) in test [1] is less than 100 nM; in test [4], less than 1000 nM.

For the molecule `C=CC(=O)NCc1ccc(Oc2ccc(C(F)(F)F)cc2)c2sc(C)nc12` [Compound 257, N-([2-Methyl-7-{4-(trifluoromethyl)phenoxy}benzo[d]thiazol-4-yl]methyl)acrylamide], the 50% growth inhibitory concentration (GI50) in test [1] is less than 100 nM; in test [2], less than 3000 nM; in test [4], less than 1000 nM.

For the molecule `C=CC(=O)NCc1ccc(OC2CCCCC2)c2nc(C)oc12` [Compound 276, N-[{4-(Cyclohexyloxy)-2-methylbenzo[d]oxazol-7-yl}methyl]acrylamide], the GI50 in test [1] was less than 100 nM; in test [2], less than 3000 nM; in test [3] it was no more than 3000 nM.

Regarding `C=CC(=O)NCc1ccc(Oc2ccc(C(F)(F)F)cc2)c2nc(C(F)(F)F)oc12` [Compound 248, N-([2-(Trifluoromethyl)-4-{4-(trifluoromethyl)phenoxy}benzo[d]oxazol-7-yl]methyl)acrylamide], the GI50 in test [1] is 100 to 1000 nM; in test [4] it was less than 1000 nM.
